Reference: PubChem BioAssay (NCI)
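1) Cells in 96-well plates. 2) Compound, 48 h, 5 concentrations. 3) Linear interpolation between surrounding doses. 4) Unreached endpoint = highest concentration. The concentration for full growth arrest is given as TGI.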

Columns and labels:
Assay in all cases: NCI tumour cell line growth inhibition, 48 h
[1] = system: SR leukemia
[2] = system: SK-MEL-5 melanoma
[3] = system: NCI-H226 lung
[4] = system: HT29 colon
[5] = system: NCI-H23 lung
[6] = system: NCI-H460 lung
[7] = system: SK-OV-3 ovarian
[8] = system: HCT-116 colon
[9] = system: COLO 205 colon
[10] = system: UACC-257 melanoma
[11] = system: CCRF-CEM leukemia
[12] = system: HOP-62 NSCLC
[13] = system: NCI-H522 lung
[14] = system: NCI/ADR-RES ovarian
[15] = system: SNB-19 CNS
[16] = system: RXF 393 renal
[17] = system: BT-549 breast
[18] = system: A549 NSCLC
[19] = system: SF-295 CNS
[20] = system: HL-60(TB) leukemia
[21] = system: OVCAR-5 ovarian
[22] = system: MDA-MB-435
[23] = system: SNB-75 CNS
[24] = system: MDA-N
[25] = system: CAKI-1 renal
[26] = system: ACHN renal
[27] = system: OVCAR-4 ovarian
[28] = system: EKVX NSCLC
[29] = system: SN12C renal
[30] = system: PC-3 prostate
[31] = system: MALME-3M melanoma
[32] = system: MCF7 breast
[33] = system: SK-MEL-2 melanoma
[34] = system: OVCAR-3 ovarian
[35] = system: UO-31 renal
[36] = system: OVCAR-8 ovarian
[37] = system: SW-620 colon
[38] = system: SF-268 CNS
[39] = system: T-47D breast
[40] = system: TK-10 renal
[41] = system: UACC-62 melanoma
[42] = system: IGROV1 ovarian
[43] = system: HS 578T breast
[44] = system: HOP-92 NSCLC
[45] = system: SF-539 CNS
[46] = system: 786-0 renal
[47] = system: LOX IMVI melanoma
[48] = system: MDA-MB-231 breast
[49] = system: DU-145 prostate
[50] = system: KM12 colon
[51] = system: K-562 leukemia
[52] = system: RPMI-8226 leukemia
[53] = system: HCT-15 colon
[54] = system: MOLT-4 leukemia
[55] = system: U251 CNS
[56] = system: A498 renal
[57] = system: M14 melanoma
[58] = system: SK-MEL-28 melanoma
[59] = system: HCC-2998 colon

With NNC(=O)CC(=O)Nc1ccc(C(=O)O)cc1 the TGI [1] was > 100 µM, the TGI [2] was > 100 µM and the TGI [3] was > 100 µM. The TGI [4] was > 100 µM, the TGI [5] was > 100 µM and the TGI [6] was > 100 µM. The TGI [7] was > 100 µM, the TGI [8] was > 100 µM and the TGI [9] was > 100 µM. The TGI [10] was > 100 µM, the TGI [11] was > 100 µM and the TGI [12] was > 100 µM. For the same compound, the TGI [13] was > 100 µM, the TGI [14] was > 100 µM and the TGI [15] was > 100 µM. For the same compound, the TGI [16] was > 100 µM, the TGI [17] was > 100 µM and the TGI [18] was > 100 µM. The TGI [19] was > 100 µM, the TGI [20] was > 100 µM and the TGI [21] was > 100 µM. For the same compound, the TGI [22] was > 100 µM, the TGI [23] was > 100 µM and the TGI [24] was > 100 µM. The TGI [25] was > 100 µM, the TGI [26] was > 100 µM and the TGI [27] was > 100 µM. For the same compound, the TGI [28] was > 100 µM, the TGI [29] was > 100 µM and the TGI [30] was > 100 µM. The TGI [31] was > 100 µM, the TGI [32] was > 100 µM and the TGI [33] was > 100 µM. The TGI [34] was > 100 µM, the TGI [35] was > 100 µM and the TGI [36] was > 100 µM. The TGI [37] was > 100 µM, the TGI [38] was > 100 µM and the TGI [39] was > 100 µM. For the same compound, the TGI [40] was > 100 µM, the TGI [41] was > 100 µM and the TGI [42] was > 100 µM. For the same compound, the TGI [43] was > 100 µM, the TGI [44] was > 100 µM and the TGI [45] was > 100 µM. For the same compound, the TGI [46] was > 100 µM, the TGI [47] was > 100 µM and the TGI [48] was > 100 µM. The TGI [49] was > 100 µM, the TGI [50] was > 100 µM and the TGI [51] was > 100 µM. The TGI [52] was > 100 µM, the TGI [53] was > 100 µM and the TGI [54] was > 100 µM. The TGI [55] was > 100 µM.
For Cc1cc(C)nc(NC(=S)Nc2cccc(Cl)c2)c1, the TGI [1] was > 100 µM, the TGI [56] was > 100 µM and the TGI [3] was > 100 µM. For the same compound, the TGI [4] was > 100 µM, the TGI [5] was > 100 µM and the TGI [6] was > 100 µM. The TGI [7] was > 100 µM, the TGI [57] was > 100 µM and the TGI [8] was > 100 µM. For the same compound, the TGI [9] was > 100 µM, the TGI [10] was > 100 µM and the TGI [58] was > 100 µM. For the same compound, the TGI [11] was > 100 µM, the TGI [12] was > 100 µM and the TGI [14] was > 100 µM. The TGI [59] was > 100 µM, the TGI [15] was > 100 µM and the TGI [16] was > 100 µM. For the same compound, the TGI [17] was > 100 µM, the TGI [18] was > 100 µM and the TGI [19] was > 100 µM. The TGI [20] was > 100 µM, the TGI [21] was > 100 µM and the TGI [22] was > 100 µM. The TGI [23] was > 100 µM, the TGI [24] was > 100 µM and the TGI [25] was > 86.5 µM. The TGI [26] was > 100 µM, the TGI [27] was > 100 µM and the TGI [28] was > 100 µM. For the same compound, the TGI [29] was > 100 µM, the TGI [30] was > 100 µM and the TGI [31] was > 100 µM. For the same compound, the TGI [32] was > 58.3 µM, the TGI [33] was > 100 µM and the TGI [34] was > 100 µM. For the same compound, the TGI [35] was > 100 µM, the TGI [36] was > 100 µM and the TGI [37] was > 100 µM. For the same compound, the TGI [38] was > 100 µM, the TGI [39] was > 100 µM and the TGI [40] was > 100 µM. For the same compound, the TGI [41] was > 100 µM, the TGI [42] was > 100 µM and the TGI [43] was > 100 µM. For the same compound, the TGI [45] was > 100 µM, the TGI [46] was > 100 µM and the TGI [47] was > 100 µM. The TGI [48] was > 100 µM, the TGI [49] was > 100 µM and the TGI [50] was > 100 µM. The TGI [51] was > 100 µM, the TGI [52] was > 100 µM and the TGI [53] was > 100 µM. The TGI [54] was > 100 µM and the TGI [55] was > 100 µM.
